Where a name gives a salt, the structure may show the parent alone.

One data set relates to depression patients. To be noted: STAR*D study, over 2800 depression patients; cited from earlier work.
Data set [1] deals with unpredictably long-term stressed rats. The experiment in a line: unpredictable long-term stimulus (CUMS) experiment on rats: sucrose intake measurement. It counts as in vivo, rat. To be noted: CUMS model rats, 21 consecutive days; low dose of Embodiment 1 (15 mg/kg/d) or positive group; vs control P<0.01. The source says:
(§1) The inventor conducted animal behavior experiments, including the tail-hang experiment on mice, the forced-swim experiment on rats, the forced-swim experiment on mice, the unpredictable long-term stimulus experiment on rats, the olfactory bulb lesion experiment on rats and others, according to the pathogenetic mechanism and clinical symptoms of depression. 1.2 The pharmaceutical composition of Embodiment 1 was intragastrically administered to rats under the chronic unpredictable mild stress (CUMS) model with the dose of 15 mg/kg/d, 30 mg/kg/d and 60 mg/kg/d for 21 consecutive days.

The test system is the same in data set [2]. The data set is described as follows: unpredictable long-term stimulus (CUMS) experiment on rats: body weight measurement. The class given is in vivo, rat. To be noted: CUMS model rats, 21 consecutive days; low dose of Embodiment 1 (15 mg/kg/d) or positive group; compared to control group.
From the text: as §1

The subject of a further data set is forced-swim mice. The data set is described as follows: forced-swim experiment on mice. The class given is in vivo. To be noted: intragastric, one week; Embodiment 1 medium dose 40 mg/kg/d, or positive control; vs control P<0.05. The source says:
(§2) The inventor conducted animal behavior experiments, including the tail-hang experiment on mice, the forced-swim experiment on rats, the forced-swim experiment on mice, the unpredictable long-term stimulus experiment on rats, the olfactory bulb lesion experiment on rats and others, according to the pathogenetic mechanism and clinical symptoms of depression.

The next data set has as its system cAMP. The data set is described as follows: level of cAMP in hippocampus of normal rats 8 hours after administration (ELISA). The class given is in vivo, rat. The conditions noted are these: 8 hours after intragastric 5 mg/kg (positive control drug). Here is the method:
8 hours after normal rats were intragastrically administered with the pharmaceutical of Embodiment 1, their hippocampi were taken out. The variations in the levels of cAMP and phospho-CREB (p-CREB) in the hippocampus were determined using enzyme-linked immunosorbent assay (ELISA), the variations on the activities of the cAMP-dependent PKA were determined using bioluminescent assay, and the variations in the activities of PDE were determined using a fluorescence method. […] The experimental data were statistically analyzed and plotted using Origin […].5 software. 2. […] The sample was determined using the ParameterTM Cyclic AMP Assay ELISA kit (R&D Systems, Inc., U.S.). The sample was defrosted to room temperature, and the level of cAMP in the sample was determined using competitive ELISA. The value of optical density (OD) of the sample was determined at 450 nm using the multi-mode microplate reader, and the level of cAMP in the sample was calculated according to the standard curve. 5.1 The level of cAMP in the rat's hippocampus: The cAMP concentration in the homogenate of the rat's hippocampus was determined using the ELISA assay, and the level of cAMP contained in the hippocampus tissue was obtained by dividing the […], and is presented as pmol/g tissue (referring to FIG. 5).

In the next data set the test system is forced-swim rats. The experiment in a line: forced-swim experiment on rats. It counts as in vivo, rat. The conditions noted are these: intragastric, one week; Embodiment 1 medium dose 30 mg/kg/d, or positive control; vs control P<0.05.
From the text: as §2

Data set [3] concerns unpredictably long-term stressed rats. The experiment in a line: unpredictable long-term stimulus (CUMS) experiment on rats: open field box test. It counts as in vivo, rat. To be noted: CUMS model rats, 21 consecutive days; low dose of Embodiment 1 (15 mg/kg/d) or positive group; vs control P<0.01.
From the text: as §1

In another data set the test system is tail-hanged mice. The experiment in a line: tail-hang experiment on mice. To be noted: intragastric, one week; Embodiment 1 medium dose 40 mg/kg/d, or positive control; vs control P<0.05. It counts as in vivo.
From the text: as §2

The subject of data set [4] is olfactory bulb lesion model rats. The experiment in a line: olfactory bulb lesion experiment: open field box test. The conditions noted are these: 24 consecutive days, high dose of Embodiment 1 (60 mg/kg/d) or Paroxetine of 3 mg/kg/d, compared to control group. It counts as in vivo, rat. The text has this: The inventor conducted animal behavior experiments, including the tail-hang experiment on mice, the forced-swim experiment on rats, the forced-swim experiment on mice, the unpredictable long-term stimulus experiment on rats, the olfactory bulb lesion experiment on rats and others, according to the pathogenetic mechanism and clinical symptoms of depression. 1.3 The pharmaceutical composition of Embodiment 1 was intragastrically administered to olfactory bulb lesion model rats with the dose of 15 mg/kg/d, 30 mg/kg/d and 60 mg/kg/d for 24 consecutive days.

The test system of data set [5] is unpredictably long-term stressed rats. The data set is described as follows: unpredictable long-term stimulus (CUMS) experiment on rats: jumping test. It counts as in vivo, rat. The conditions noted are these: CUMS model rats, 21 consecutive days; low dose of Embodiment 1 (15 mg/kg/d) or positive group; vs control P<0.01.
From the text: as §1

In data set [6] the test system is phosphodiesterase 4 (PDE4). To be noted: cited from earlier work.

For the molecule `Br.CN(C)CCCC1(c2ccc(F)cc2)OCc2cc(C#N)ccc21` (stereo not shown) [Celexa®], the remission rate entry in the data set on depression patients was “about 30%”.

As for `Fc1ccc([C@@H]2CCNC[C@H]2COc2ccc3c(c2)OCO3)cc1` [Paroxetine, Paroxetine hydrochloride], in [1], the sucrose consumption entry is given as “significantly increased”. For the same molecule, the body weight gains entry in data set [2] is reported as “significantly increased”. Also, the “non-movement time for the forced-swim mice” value in the data set on forced-swim mice is “significantly shorter”. In the data set with cAMP, the “initiation of the cAMP-PKA-CREB (p-CREB) pathway” value was “cannot initiate”. In addition, in the data set on forced-swim rats, the “non-movement time for the forced-swim rats” value was “significantly shorter”. In [3], the “horizontal movement and vertical movement” value is “significantly increased”. Moreover, the “non-movement time for the tail-hanged mice” value with tail-hanged mice is reported as “significantly shorter”. Besides, the “decrease of the horizontal movement and vertical movement caused by the olfactory bulb lesion (open field box test)” value in [4] is listed as “significantly improved”. Moreover, in data set [5], the “number of errors in rat jumping trial” value is given as “significantly decreased”.

Consider `COc1ccc(C(CN(C)C)C2(O)CCCCC2)cc1.Cl` (stereo not shown) [Effexor®], for which the remission rate result with depression patients is “about 30%”.

In the case of `CC(NC(C)(C)C)C(=O)c1cccc(Cl)c1.Cl` (stereo not shown) [Wellbutrin®], the remission rate entry in the data set on depression patients is recorded as “about 30%”.

For `COc1ccc(C2CNC(=O)C2)cc1OC1CCCC1` (stereo not shown) [Rolipram®], the side effects entry in data set [6] (background statement) is “severe emesis”. In addition, the anti-depression effect result in data set [6] (experimental results referred to in background) is given as “significant anti-depression effect”.

Regarding `CN[C@H]1CC[C@@H](c2ccc(Cl)c(Cl)c2)c2ccccc21.Cl` [Zoloft®], the remission rate result in the data set on depression patients was “about 30%”.

Turning to `Cl.O=C1CC2(CCCC2)CC(=O)N1CCCCN1CCN(c2ncccn2)CC1` [Buspar®], in the data set on depression patients, the remission rate result was “about 30%”.
